Measurements: patent US11667612B2, “Compositions and methods for delivering pharmaceutical agents” (Arizona Board of Regents on Behalf of the University of …, priority 2017, dated 2023)
Several values for one entry are separate records, joined by “and”; a condition that tells them apart may be missing. Equal values may be shown once.

Tests used:
[1] = Karl Fischer coulometric titration, residual water content; type: physicochemical
[2] = test system: Calu-3 lung epithelial cells; assay: In vitro transepithelial electrical resistance (TEER) analysis; type: cell-based, human; conditions: Calu-3, AIC, 100 μM
Experimental: The cells were seeded at 500,000 cells/ml in Costar Transwells® (0.4 μm polyester membrane, 12 mm for a 12-well plate) with 0.5 ml of media on the apical side and 1.5 ml of media on the basolateral side. Media was changed every other day from the basolateral and apical side. After 10 days of growth, when the cells reached a TEER value of about 1000 Ω/cm^2 which is an indicator of a confluent monolayer at liquid covered culture (LCC) the media was removed from both sides and 800 μl of media was added to the basolateral side of the Transwells to facilitate air-interface culture (AIC) conditions. The TEER responses of the cells were measured with an Endohom 12 mm Culture Cup (World Precision Instruments, Sarasota, Fla.). […] TEER values were then recorded for up to 7 days after aerosol treatment, as previously reported (Meenach S A, 2014, supra; Meenach S A, et al., April 2016; 48(4):1701-1709).
The cells were seeded at 500,000 cells/ml in Costar Transwells® (0.4 μm polyester membrane, 12 mm for a 12-well plate) with 0.5 ml of media on the apical side and 1.5 ml of media on the basolateral side. […] The TEER responses of the cells were measured with an Endohom 12 mm Culture Cup (World Precision Instruments, Sarasota, Fla.). […] TEER values were then recorded for up to 7 days after aerosol treatment, as previously reported (Meenach et al., 2014, supra; Meenach et al., 2016, supra).

[3] = test system: monocrotaline (MCT) rat model of PH; assay: In vivo hemodynamic efficacy study in PH induced rats (monocrotaline model); parameters: species or system Sprague Dawley rats; conditions: for Right ventricle systolic pressure (RVSP): individual rats, inhaled dry powder 10 mg/kg for 14 days
Experimental: In vivo studies were conducted in a monocrotaline (MCT) rat model with the purpose of testing the efficacy of TMP in decreasing PH. A total of 30 male Sprague Dawley rats (280-350 g) were used in this study. Rats were purchased from Charles River Laboratories International Inc. (Wilmington, Mass.). Rats were weighted weekly to monitor their health. PH was induced by injecting 60 mg/kg of MCT via intraperitoneally. The animals were divided into 5 groups (n=5) into the following categories: 1) Naïve (control), 2) Naïve+TMP, 3) MCT (PH induced) 4) MCT+ treated with vehicle (air), 5) MCT+ treated with TMP. Two weeks after MCT administration, the rats started to get the treatment via aerosolization of a dry powder formulation of SD TMP (10 mg/kg) using a Penn Century Dry Powder Insufflator™—Model DP-4M for 14 days. Right ventricle systolic pressure (RVSP) hemodynamics were performed after 2 weeks and 4 weeks after MCT administration by inserting a customized pressure transducer catheter (SPR-513, Millar Instruments, Houston, Tex.), into the right ventricle (RV) via the right jugular vein and right atrium. The transducer was connected to a Millar Transducer Control Unit TC-510 and PL3504 PowerLab 4/35 data acquisition system (ADInstruments, Inc., Colorado Springs, Colo.). At the end of pressure recording, the animals were euthanized.

[4] = In vitro aerosol dispersion performance, Next Generation Impactor (NGI); type: physicochemical; conditions: for Emitted Fraction (%) / Emitted dose / Fine Particle Dose / Fine Particle Fraction (%) / GSD / MMAD / Respirable Dose / Respirable Fraction (%): NGI 60 L/min
Experimental: In accordance with US Pharmacopeia (USP) Chapter <601> specification on aerosols and using conditions similar to previously reported (Meenach S A, et al., AAPS PharmSciTech. 2014; 15(6):1574-1587; Muralidharan P, et al., Molecular Systems Design & Engineering. 2016), the in vitro aerosol dispersion properties of the dry powder particles were determined using the Next Generation Impactor® (NGI®) with a stainless steel induction port (USP throat) attachment (NGI® Model 170), equipped with specialized stainless steel NGI® gravimetric insert cups (MSP Corporation, Shoreview, Md., USA). The NGI® was coupled with a Copley TPK 2000 critical flow controller connected to a Copley HCP5 vacuum pump, and the airflow rate (Q), was measured and adjusted prior to each experiment using a Copley DFM 200 flow meter (Copley Scientific, UK).
The mass of powder deposited on each stage was quantified by a gravimetric method using type A/E glass fiber filters with diameter 55 mm (PALL Corporation, Port Washington, N.Y.) and 75 mm (Advance, Japan). Quali-V clear HPMC size 3 inhalation grade capsules (Qualicaps, North Carolina) filled with about 10 mg of powder were used. Three capsules were used in each experiment. In vitro aerosolization was done in triplicate (n=3) under ambient conditions. The NGI™ was operated at a flow rate of 601 min^1 with an actuation time of 10 s through the inhaler. The glass fiber filter was measured gravimetrically before and after actuation, on each stage, to determine the particle stage deposition. The fine particle dose (FPD), fine particle fraction (FPF), respirable fraction (RF), and emitted dose (ED) were calculated using the following equations:
[formula] [formula] [formula] The mass mean aerodynamic diameter (MMAD) and geometric standard deviation (GSD) of aerosol dispersion profiles were determined using a Mathematica (Wolfram Research Inc., Champaign, Ill.) program ((Meenach S A, et al., AAPS PharmSciTech. 2014; 15(6):1574-1587; Muralidharan P, et al., Molecular Systems Design & Engineering. 2016). The aerosol dispersion performance was tested using three FDA approved inhalers Handihaler®, Aerolizer®, and Neohaler®. In Vitro Cell Dose Response Assay
In accordance with US Pharmacopeia (USP) Chapter <601> specification on aerosols and using conditions similar to previously reported, the in vitro aerosol dispersion properties of the dry powder particles were determined using the Next Generation Impactor® (NGI®) with a stainless steel induction port (USP throat) attachment (NGI® Model 170), equipped with specialized stainless steel NGI® gravimetric insert cups (MSP Corporation, Shoreview, Md., USA). The NGI® was coupled with a Copley TPK 2000 critical flow controller connected to a Copley HCP5 vacuum pump, and the airflow rate (Q), was measured and adjusted prior to each experiment using a Copley DFM 200 flow meter (Copley Scientific, UK).
The mass of powder deposited on each stage was quantified by gravimetric method using type A/E glass fiber filters with diameter 55 mm (PALL Corporation, Port Washington, N.Y.) and 75 mm (Advance, Japan). Quali-V clear HPMC size 3 inhalation grade capsules (Qualicaps, North Carolina) filled with about 10 mg of powder were used. Three capsules were used in each experiment. In vitro aerosolization was done in triplicate (n=3) under ambient conditions. The NGI™ was operated at a flow rate of 601 min^−1 with a delay time of 10 s before actuation of the inhaler, followed by 10 s of airflow through the inhaler. The glass fiber filter was measured gravimetrically before and after actuation, on each stage, to determine the particle stage deposition. The fine particle dose (FPD), fine particle fraction (FPF), respirable fraction (RF), and emitted dose (ED) were calculated using the 3-6 equations:

[5] = Laser diffraction particle sizing and size distribution; type: physicochemical
Experimental: Particle size and size distributions of the particles were determined by laser diffraction with the SALD-7101 (Shimadzu Scientific Instruments, Japan) using conditions previously reported (Li X, Mansour H M., AAPS PharmSciTech. December 2011; 12(4):1420-1430; Meenach S A, et al., Int J Nanomedicine. 2013; 8:275-293; Wu X, et al., Drug design, development and therapy. 2013; 7:59-72; Wu X, et al., Int J Nanomedicine. 2013; 8:1269-1283) for measurement of the mean size and size distribution of SD particles in aqueous suspension. Samples were dispersed in ultrapure water and ultrasonicated for 10 s in water bath ultrasonicator Branson 7500 before measuring particle size. Sample particle dispersion was immediately transferred to particle size measuring cell and kept stirring during measurement in nano particle size analyzer. The low refractive index of 1.50-0.00i was used. Volume-based measurements were obtained. DV10, DV50, and DV90 were used as particle size characterization parameters. The span value was calculated using the equation defined as Span=[(DV90−DV10)/DV50] Equation 1. X-Ray Powder Diffraction (XRPD)

[6] = Aerolizer, listed as spray dried TMP
[7] = Handihaler, listed as spray dried TMP
[8] = Neohaler, listed as spray dried TMP
[9] = laser diffraction, aqueous suspension, volume-based

Experimental for A549 pulmonary cell line: (§1) Cell-based assays are often used to determine if test molecules have effects on cell proliferation or show direct cytotoxicity effects that eventually leads to cell death. The effects of TMP formulations were analyzed by measuring the response of lung adenocarcinoma cells at different concentrations of the drug. […] The H348 pulmonary cell line is a human bronchoalveolar epithelial cell line similar to alveolar type II cells and express lung surfactant associated protein A (SP-A) (Acosta M F, et al., Current pharmaceutical design. 2016; 22(17):2522-2531). […]
(§2) As previously reported (Acosta et al., 2014, supra), both cell lines were seeded in 96-well plates at 5000 cells/well and 100 μl/well and allowed to attach for 48 hours. […] At this point, the fluorescence intensity was detected at 544 nm (excitation) and 590 nm (emission) using a Synergy H1 Multi-Mode Reader (BioTek Instruments Inc., Winooski, Vt.).
(§3) Cell-based assays are often used to determine if test molecules have effects on cell proliferation or show direct cytotoxicity effects that eventually leads to cell death. The effects of TMP formulations were analyzed by measuring the response of lung adenocarcinoma cells at different concentrations of the drug. […]
Experimental for H358 pulmonary cell line: as §1, §2, §3

## Cc1nc(C)c(C)nc1C [Raw TMP, tetramethylpyrazine, reference compound]
H358 pulmonary cell line
  Effect on cell viability: decrease
[1]
  Residual water content: 0.633 ± 0.251% w/w

## Cc1nc(C)c(C)nc1C [SD TMP, tetramethylpyrazine]
H358 pulmonary cell line
  Effect on cell viability: didn't affect the cell viability
[2]; 3 hours after treatment
  TEER (electrical resistance): decreases drastically
[2]; seven days of culturing after treatment
  TEER (electrical resistance): resistance was regained
A549 pulmonary cell line
  Effect on cell viability: didn't affect the cell viability
A549 pulmonary cell line; human, 72 h
  Amount of drug found not to be toxic to pulmonary cell lines: up to 7 mg
[3]; Group 2 (Naive + TMP)
  Right ventricle systolic pressure (RVSP): 20-25 mmHg and ~25 mmHg and 23.8990 mmHg and 24.7030 mmHg and 26.0550 mmHg and 19.6940 mmHg and 20.8110 mmHg and 24.2410 mmHg
[3]; Group 5 (MCT + TMP), 4 weeks after MCT
  Right ventricle systolic pressure (RVSP): 58.6830 mmHg and 62.4200 mmHg and 43.3890 mmHg and 59.8200 mmHg and 78.2010 mmHg and 70.5310 mmHg
[3]; Group 5 (MCT + TMP), measured weekly
  Body weight: significant loss of weight
[3]; Group 5, after two weeks of aerosol treatment
  Decrease of RVSP relative to group 3 (MCT, 4 weeks): 20-30 mmHg
[4]; Aerolizer
  Emitted Fraction (%): 88%
  Emitted dose: 79.98 mg
  Fine Particle Dose: 1.15 mg
  Fine Particle Fraction (%): 1.41%
  GSD: 2.88
  MMAD: 15.23 μm
  Respirable Dose: 8.16 mg
  Respirable Fraction (%): 14.86 ± 8.0%
[4]; [6]
  Emitted Fraction (%): 88.76 ± 7.27%
  Fine Particle Fraction (%): 1.41 ± 0.57%
  MMAD: 15.23 μm
[4]; Handihaler
  Emitted Fraction (%): 100%
  Emitted dose: 86.92 mg
  Fine Particle Dose: 3.33 mg
  Fine Particle Fraction (%): 3.33%
  GSD: 5.28
  MMAD: 68.4 μm
  Respirable Dose: 37.24 mg
  Respirable Fraction (%): 8.9 ± 3.87%
[4]; [7]
  Emitted Fraction (%): 100 ± 2.03%
  Fine Particle Fraction (%): 3.83 ± 0.42%
  MMAD: 68.4 μm
[4]; Neohaler
  Emitted Fraction (%): 88%
  Emitted dose: 79.28 mg
  Fine Particle Dose: 3.48 mg
  Fine Particle Fraction (%): 4.36%
  MMAD: 43.73 μm
  Respirable Dose: 25.19 mg
  Respirable Fraction (%): 14.87 ± 7.30%
[4]; [8]
  Emitted Fraction (%): 88.41 ± 6.70%
  Fine Particle Fraction (%): 4.36 ± 0.65%
  MMAD: 43.73 μm
[4]; in vitro aerosol stage deposition
  Particles deposited on the first NGI stage: above 90%
[5]; (Dv90-Dv10)/Dv50
  Particle sizing span value: 1.684±0.645
[5]; laser diffraction
  Particle size distribution (size range): 4-14 μm
[5]; [9]
  Particle sizing Dv10: 4.186±0.701 μm
  Particle sizing Dv50: 6.156±1.47 μm and 6.156 ± 1.147 μm
  Particle sizing Dv90: 14.552±4.928 μm
[1]
  Residual water content: 0.368±0.103 % w/w
